Assays:
[1] = molecular target: T1, JARID1C (KDM5C) (Homo sapiens, UniProt P41229); assay: Histone lysine demethylase AlphaLISA assay, JARID1C; type: biochemical; settings: substrate H3K4M3B
T1 construct: 2-1560; purchased BPS; host or cells: Bac (baculovirus)
Description: (§1) Example 2: Histone Lysine Demethylase AlphaLISA Assays for IC50 Value Determination
(§2) Assays are performed analogously to the protocol described by Perkin Elmer (Roy et al. Perkin Elmer Technical Note: AlphaLISA #12, April 2011).
(§3) Enzymes are dissolved in enzyme buffer and incubated for 10 min before 5 μL is added to 5 μL 3% DMSO solutions of compounds in enzyme buffer. Incubated for another 10 minutes, before 5 μL substrate solution is added and the reaction mixture is incubated at room temperature for the given period. 10 μL acceptor beads, suspended at given dilutions in Epigenetic Buffer (Perkin Elmer AL008) from stock, are added and the suspension is incubated 60 minutes in the dark at room temperature, before 10 μL suspension (at the given dilutions in Epigenetic Buffer) of streptavidin donor beads (Perkin Elmer 6760002) in Epigenetic Buffer is added. After incubation at room temperature in the dark the plates are read. Reaction conditions are seen in Table 2b.

[2] = molecular target: T2, GASC1 (KDM4C, JMJD2C) (Homo sapiens, UniProt Q9H3R0); assay: Histone lysine demethylase AlphaLISA assay, GASC1; type: biochemical; settings: substrate BK9M3
T2 construct: 1-349; host or cells: E. coli
T2 sequence (Q9H3R0 1-349): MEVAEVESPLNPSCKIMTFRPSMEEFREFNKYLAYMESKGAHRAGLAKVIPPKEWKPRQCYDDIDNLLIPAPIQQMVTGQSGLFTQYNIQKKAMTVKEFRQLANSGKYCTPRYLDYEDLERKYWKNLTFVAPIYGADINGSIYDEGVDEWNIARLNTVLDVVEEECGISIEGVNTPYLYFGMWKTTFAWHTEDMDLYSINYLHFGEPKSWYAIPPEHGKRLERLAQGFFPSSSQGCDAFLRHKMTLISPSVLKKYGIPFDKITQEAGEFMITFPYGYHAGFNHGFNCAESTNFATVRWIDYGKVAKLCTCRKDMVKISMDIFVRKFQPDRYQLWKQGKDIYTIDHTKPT
Method in brief: (§4)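 Per-enzyme reaction conditions apply; each enzyme sees compound for 10 min ahead of substrate addition. Bead-based AlphaLISA detection at room temperature, protected from light, gives the IC50.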

[3] = molecular target: T3, JMJD2B (KDM4B) (Homo sapiens, UniProt O94953); assay: Histone lysine demethylase AlphaLISA assay, JMJD2B; type: biochemical; settings: substrate BK9M3, read-out: JMUD2B IC50
T3 construct: 2-500; purchased BPS; host or cells: Bac (baculovirus)
T3 sequence (O94953 2-500): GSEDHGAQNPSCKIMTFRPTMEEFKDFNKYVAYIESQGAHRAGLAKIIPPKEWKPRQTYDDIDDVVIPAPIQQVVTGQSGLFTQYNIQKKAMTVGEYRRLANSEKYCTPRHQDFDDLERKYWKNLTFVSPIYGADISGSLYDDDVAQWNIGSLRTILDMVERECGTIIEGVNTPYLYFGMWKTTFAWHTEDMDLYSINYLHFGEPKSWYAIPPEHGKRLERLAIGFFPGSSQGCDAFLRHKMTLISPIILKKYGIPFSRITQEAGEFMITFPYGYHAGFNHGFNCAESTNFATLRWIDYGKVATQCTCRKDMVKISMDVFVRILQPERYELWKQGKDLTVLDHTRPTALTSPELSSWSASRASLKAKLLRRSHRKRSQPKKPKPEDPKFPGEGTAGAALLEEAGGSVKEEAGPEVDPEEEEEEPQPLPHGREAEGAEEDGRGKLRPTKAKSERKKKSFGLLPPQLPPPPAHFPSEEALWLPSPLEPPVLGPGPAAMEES
Description: as §1, §2, §3

[4] = molecular target: T4, JMJD2A (KDM4A) (Homo sapiens, UniProt O75164); assay: Histone lysine demethylase AlphaLISA assay, JMJD2A; type: biochemical; settings: substrate BK9M3
T4 construct: 1-350; purchased BPS, Bioscience, US; host or cells: E. coli
T4 sequence (O75164 1-350): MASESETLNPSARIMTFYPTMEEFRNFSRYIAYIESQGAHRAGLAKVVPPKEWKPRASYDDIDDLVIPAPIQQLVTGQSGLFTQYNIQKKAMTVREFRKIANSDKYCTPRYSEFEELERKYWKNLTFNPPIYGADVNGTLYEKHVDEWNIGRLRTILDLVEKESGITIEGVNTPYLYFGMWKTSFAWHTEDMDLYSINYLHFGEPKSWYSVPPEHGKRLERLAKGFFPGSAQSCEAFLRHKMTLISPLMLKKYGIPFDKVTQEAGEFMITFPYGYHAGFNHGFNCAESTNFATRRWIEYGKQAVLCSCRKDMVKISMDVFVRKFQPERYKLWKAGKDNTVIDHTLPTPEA
Description: as §1, §2, §3

[5] = molecular target: T5, PHF8 (KDM7) (Homo sapiens, UniProt Q9UPP1); assay: Histone lysine demethylase AlphaLISA assay, PHF8; type: biochemical; settings: substrate BK9M2
T5 construct: KDM7 (PHF8); BRIC; 1-1322; Bac
Description: as §1, §2, §3

[6] = molecular target: T6, FBXL10 (KDM2B) (Homo sapiens, UniProt Q8NHM5); assay: Histone lysine demethylase AlphaLISA assay, FBXL10; type: biochemical; settings: substrate BH3K36M2
T6 construct: 1-650; purchased BPS, Bioscience, US; host or cells: Bac (baculovirus)
T6 sequence (Q8NHM5 1-650): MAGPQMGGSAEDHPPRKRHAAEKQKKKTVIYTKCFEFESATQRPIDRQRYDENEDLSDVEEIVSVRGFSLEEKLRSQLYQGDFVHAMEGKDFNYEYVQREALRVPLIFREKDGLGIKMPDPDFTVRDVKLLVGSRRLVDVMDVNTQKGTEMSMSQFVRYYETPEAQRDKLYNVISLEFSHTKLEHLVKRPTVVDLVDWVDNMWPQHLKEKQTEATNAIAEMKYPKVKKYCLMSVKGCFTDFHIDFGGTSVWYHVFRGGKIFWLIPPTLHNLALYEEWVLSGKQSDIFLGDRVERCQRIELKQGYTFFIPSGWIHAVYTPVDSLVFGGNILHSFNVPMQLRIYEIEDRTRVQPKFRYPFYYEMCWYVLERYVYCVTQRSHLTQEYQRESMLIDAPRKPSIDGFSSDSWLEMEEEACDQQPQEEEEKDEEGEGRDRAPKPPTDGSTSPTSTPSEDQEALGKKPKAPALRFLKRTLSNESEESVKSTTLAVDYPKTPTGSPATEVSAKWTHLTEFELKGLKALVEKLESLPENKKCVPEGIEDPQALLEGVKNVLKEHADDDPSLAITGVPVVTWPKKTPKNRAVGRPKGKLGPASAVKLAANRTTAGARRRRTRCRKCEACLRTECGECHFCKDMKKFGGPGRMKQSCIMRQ
Method in brief: as §4

[7] = molecular target: T7, JMJD1B (KDM3B) (Homo sapiens, UniProt Q7LBC6); assay: Histone lysine demethylase AlphaLISA assay, JMJD1B; type: biochemical; settings: substrate BK9M2
T7 construct: 842-1761; host or cells: Bac (baculovirus)
T7 sequence (Q7LBC6 842-1761): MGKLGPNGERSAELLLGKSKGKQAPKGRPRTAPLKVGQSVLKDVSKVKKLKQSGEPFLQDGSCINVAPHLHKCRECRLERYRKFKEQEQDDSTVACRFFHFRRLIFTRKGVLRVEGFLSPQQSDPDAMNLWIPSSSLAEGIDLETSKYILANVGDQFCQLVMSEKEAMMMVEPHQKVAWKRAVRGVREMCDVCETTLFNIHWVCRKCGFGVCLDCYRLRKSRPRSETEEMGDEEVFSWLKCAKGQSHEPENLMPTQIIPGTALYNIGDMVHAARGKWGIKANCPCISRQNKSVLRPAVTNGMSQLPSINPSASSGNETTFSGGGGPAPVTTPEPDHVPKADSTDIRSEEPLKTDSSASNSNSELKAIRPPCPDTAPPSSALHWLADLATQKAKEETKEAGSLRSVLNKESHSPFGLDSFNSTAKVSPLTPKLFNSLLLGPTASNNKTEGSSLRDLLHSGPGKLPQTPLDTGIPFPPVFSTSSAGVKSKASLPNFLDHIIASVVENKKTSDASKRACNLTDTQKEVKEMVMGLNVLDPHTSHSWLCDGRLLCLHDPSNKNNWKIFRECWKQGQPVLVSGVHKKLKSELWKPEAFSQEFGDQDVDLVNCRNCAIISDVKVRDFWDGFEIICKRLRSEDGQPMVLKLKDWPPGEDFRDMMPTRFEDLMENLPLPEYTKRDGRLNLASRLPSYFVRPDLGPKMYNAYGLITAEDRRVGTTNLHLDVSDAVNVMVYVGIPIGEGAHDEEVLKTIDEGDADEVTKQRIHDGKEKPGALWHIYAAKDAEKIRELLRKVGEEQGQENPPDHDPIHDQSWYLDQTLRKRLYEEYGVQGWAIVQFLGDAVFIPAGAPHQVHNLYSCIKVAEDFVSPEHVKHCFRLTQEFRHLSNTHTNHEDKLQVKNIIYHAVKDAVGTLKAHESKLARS
Description: as §1, §2, §3

[8] = molecular target: T8, JMJD2A (KDM4A) (Homo sapiens, UniProt O75164); assay: Immunofluorescence assay in U2OS cells transfected with pCMVHA JMJD2A (H3K9me3 mark); type: cell-based; settings: 20 hours
T8 construct: Full length; host or cells: U2OS
T8 sequence (O75164 1-1064): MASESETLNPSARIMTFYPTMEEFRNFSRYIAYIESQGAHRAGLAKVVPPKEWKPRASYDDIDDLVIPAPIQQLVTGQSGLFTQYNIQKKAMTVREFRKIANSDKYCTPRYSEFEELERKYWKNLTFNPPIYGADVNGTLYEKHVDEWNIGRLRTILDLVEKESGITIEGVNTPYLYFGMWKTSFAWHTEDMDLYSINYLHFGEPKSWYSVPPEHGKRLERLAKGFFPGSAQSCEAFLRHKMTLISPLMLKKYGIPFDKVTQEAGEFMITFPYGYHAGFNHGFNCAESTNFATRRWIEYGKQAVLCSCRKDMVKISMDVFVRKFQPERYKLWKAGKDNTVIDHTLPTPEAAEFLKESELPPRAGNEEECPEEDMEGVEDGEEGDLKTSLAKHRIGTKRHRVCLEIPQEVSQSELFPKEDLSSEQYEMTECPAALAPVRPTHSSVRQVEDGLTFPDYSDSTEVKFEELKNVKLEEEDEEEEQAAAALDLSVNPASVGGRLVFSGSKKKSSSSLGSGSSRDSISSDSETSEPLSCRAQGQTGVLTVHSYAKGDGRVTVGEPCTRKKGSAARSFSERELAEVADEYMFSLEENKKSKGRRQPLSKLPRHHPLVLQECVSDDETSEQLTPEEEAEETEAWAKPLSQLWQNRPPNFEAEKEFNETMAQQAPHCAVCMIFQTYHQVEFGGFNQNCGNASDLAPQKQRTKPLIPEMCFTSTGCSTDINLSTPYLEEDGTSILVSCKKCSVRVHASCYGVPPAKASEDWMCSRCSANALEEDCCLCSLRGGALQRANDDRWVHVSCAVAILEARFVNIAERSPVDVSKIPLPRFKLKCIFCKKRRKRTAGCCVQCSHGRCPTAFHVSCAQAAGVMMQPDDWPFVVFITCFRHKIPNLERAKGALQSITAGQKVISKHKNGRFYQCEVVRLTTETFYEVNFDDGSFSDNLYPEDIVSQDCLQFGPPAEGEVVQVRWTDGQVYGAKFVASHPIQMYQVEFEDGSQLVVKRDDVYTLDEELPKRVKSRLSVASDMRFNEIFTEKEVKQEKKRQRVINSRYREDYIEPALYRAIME
Description: U2OS cells were seeded 24 hours before transfection. Transfection was performed with Fugene HD transfection reagent as recommended by the manufacturer. 6 hours after transfection, the cells were harvested and seeded into multi well plates into media containing compound. The media used was DMEM containing 5% FBS and pen/strep. 20 hours after incubation of cells with compounds, the cells were washed once in PBS, harvested by fixation with formaldehyde 4% aqueous solution, and washed 2 times in PBS. Subsequently, the cells were permeabilized in PBS with 0.2% Triton X-100 for 10 min at room temperature. Blocking was performed in PBS with 0.2% Triton X-100 and 5% FBS for 45 min at room temperature. The cells were incubated with primary antibodies diluted 1 μg/ml in blocking solution over night at 4° C. The primary antibodies used in the assays were HA.11 (Covance, MMS-101P) and the antibody detecting the mark specified in the Table 6 below. After incubation with primary antibodies, the cells were washed 3 times with PBS, incubated with secondary antibodies diluted 1:1000 (Alexa fluor 594 goat anti rabbit IgG, Invitrogen, A11012; Alexa flour 488 donkey anti mouse IgG, Invitrogen, A21202) and Hoechst, 20 μg/ml (Sigma, 33342) in blocking solution, and washed again 3 times with PBS. Finally, PBS was added and high throughput imaging and analysis were performed by an IN Cell Analyzer 1000 (GE Healthcare). The robot software analyzed individual cells and divided these into HA^+ (transfected cells) and HA^− (non-transfected cells). The IC50 values in Table 7 below were based on an average measure of the staining of the mark specified in the Table 6 below in the transfected cells.

T1 sequence (P41229 2-1560): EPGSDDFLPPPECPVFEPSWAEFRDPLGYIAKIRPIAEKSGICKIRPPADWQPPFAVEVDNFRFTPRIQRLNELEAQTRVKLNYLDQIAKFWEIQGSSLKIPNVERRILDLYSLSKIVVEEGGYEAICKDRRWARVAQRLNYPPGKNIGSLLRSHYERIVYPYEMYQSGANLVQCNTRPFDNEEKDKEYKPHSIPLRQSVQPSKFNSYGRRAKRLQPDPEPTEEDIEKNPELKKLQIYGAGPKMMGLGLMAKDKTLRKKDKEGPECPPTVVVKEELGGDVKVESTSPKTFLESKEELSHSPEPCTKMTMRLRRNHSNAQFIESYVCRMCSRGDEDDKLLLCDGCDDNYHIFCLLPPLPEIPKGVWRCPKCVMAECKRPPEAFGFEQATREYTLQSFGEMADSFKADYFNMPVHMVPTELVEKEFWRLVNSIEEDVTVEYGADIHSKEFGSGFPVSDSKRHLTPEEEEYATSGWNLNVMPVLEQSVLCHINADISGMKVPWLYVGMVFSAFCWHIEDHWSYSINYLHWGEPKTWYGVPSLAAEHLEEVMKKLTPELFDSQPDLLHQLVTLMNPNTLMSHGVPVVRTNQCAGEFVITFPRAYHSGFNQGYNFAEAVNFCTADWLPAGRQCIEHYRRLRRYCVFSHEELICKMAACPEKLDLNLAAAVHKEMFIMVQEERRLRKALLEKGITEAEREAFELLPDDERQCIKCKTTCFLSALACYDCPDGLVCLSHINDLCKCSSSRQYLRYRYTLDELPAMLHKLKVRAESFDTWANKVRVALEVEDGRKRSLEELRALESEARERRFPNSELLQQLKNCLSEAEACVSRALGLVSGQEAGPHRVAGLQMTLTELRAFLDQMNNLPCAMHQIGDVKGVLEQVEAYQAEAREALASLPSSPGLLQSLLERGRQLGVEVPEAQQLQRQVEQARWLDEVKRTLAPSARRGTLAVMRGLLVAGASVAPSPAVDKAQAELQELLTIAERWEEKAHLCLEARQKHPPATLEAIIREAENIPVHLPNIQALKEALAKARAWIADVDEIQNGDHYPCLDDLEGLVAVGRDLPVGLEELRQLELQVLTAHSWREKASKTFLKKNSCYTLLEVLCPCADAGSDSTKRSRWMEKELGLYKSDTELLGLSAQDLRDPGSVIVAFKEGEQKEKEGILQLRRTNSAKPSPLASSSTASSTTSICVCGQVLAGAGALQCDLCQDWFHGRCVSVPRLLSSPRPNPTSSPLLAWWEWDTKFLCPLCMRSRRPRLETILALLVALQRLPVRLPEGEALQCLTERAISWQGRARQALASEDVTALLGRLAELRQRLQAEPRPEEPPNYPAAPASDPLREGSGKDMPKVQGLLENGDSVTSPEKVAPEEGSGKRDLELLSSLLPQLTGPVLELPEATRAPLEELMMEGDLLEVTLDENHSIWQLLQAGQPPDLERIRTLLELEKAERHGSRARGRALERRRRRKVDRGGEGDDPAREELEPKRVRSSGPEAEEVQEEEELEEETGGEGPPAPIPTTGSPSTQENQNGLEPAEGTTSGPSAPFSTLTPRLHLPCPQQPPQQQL
T5 sequence (Q9UPP1 37-477 limits assumed): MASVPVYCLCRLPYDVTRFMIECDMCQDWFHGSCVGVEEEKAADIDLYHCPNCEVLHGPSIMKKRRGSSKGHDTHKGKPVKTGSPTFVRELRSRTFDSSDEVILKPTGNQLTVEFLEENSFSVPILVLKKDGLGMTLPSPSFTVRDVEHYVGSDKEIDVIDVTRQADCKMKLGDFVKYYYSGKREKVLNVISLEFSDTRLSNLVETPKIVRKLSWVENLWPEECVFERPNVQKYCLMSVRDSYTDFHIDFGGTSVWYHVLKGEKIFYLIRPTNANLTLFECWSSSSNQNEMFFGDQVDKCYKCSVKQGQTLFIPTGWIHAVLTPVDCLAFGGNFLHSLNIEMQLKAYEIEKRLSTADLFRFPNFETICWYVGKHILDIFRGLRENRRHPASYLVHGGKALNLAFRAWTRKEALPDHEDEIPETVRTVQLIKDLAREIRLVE

CN(CCCCN(Cc1ccccc1)C1CC1)C(=O)CNCc1cc(C(=O)O)ccn1 [#44, 2-({[({4-[benzyl(cyclopropyl)amino]butyl}(methyl)carbamoyl)methyl]amino}methyl)pyridine-4-carboxylic acid]
IC50 [1]: < 0.1 µM | IC50 [2]: < 0.1 µM | IC50 [3]: < 0.1 µM | IC50 [4]: < 0.1 µM | IC50 [5]: 0.1 to 1 µM | IC50 [6]: < 0.1 µM | IC50 [7]: ≥ 1 µM

CSCCNCc1cc(C(=O)O)ccn1 [drawing 304, 2-({[2-(methylsulfanyl)ethyl]amino}methyl)pyridine-4-carboxylic acid]
IC50 [8]: 1 to 50 µM

CCOC(=O)N(C)c1ccc(COC(=O)c2ccnc(CNCCCCN(CC)CC)c2)cc1 [drawing 333, {4-[(ethoxycarbonyl)(methyl)amino]phenyl}methyl 2-({[4-(diethylamino)butyl]amino}methyl)pyridine-4-carboxylate]
IC50 [8]: < 1 µM

CCCCCCCCCCCCCCCC(=O)OCC(COC(=O)CCCCCCCCCCCCCCC)OC(=O)c1ccnc(CNCC(=O)N(CC)CCN(C)C)c1 [drawing 334, 2-(2-{[({[2-(dimethylamino)ethyl](ethyl)carbamoyl}methyl)amino]methyl}pyridine-4-carbonyloxy)-3-(hexadecanoyloxy)propyl hexadecanoate]
IC50 [8]: 1 to 50 µM

Source: patent publication US10221139B2, “Inhibitors of histone demethylases” (Gilead Sciences, Inc., priority 2012, dated 2019)
